Results reported in patent US11998028B2, “Polypeptide for hydrolytic cleavage of zearalenone and/or zearalenone derivatives, isolated polynucleotide thereof as well as a polypeptide containing an additive, use of same as well as a process” (priority 2013, dated 2024).

Legend:
estrogenic effect = settings: cited from earlier work
pigs = settings: cited from earlier work
[1] = system: polypeptide (hydrolase / zonase) with sequence ID no. 1, C-terminal 6×His tag; experiment: Enzyme kinetics of ZEN hydrolysis to HZEN, photometric at 315 nm; format: biochemical; settings: ZEN substrate, 50 mM Tris-HCl pH 8.2, 32° C.
Procedure: The soluble cell lysate in the case of E. coli and/or the culture supernatant in the case of P. pastoris was/were used for determination of the catalytic properties of the polypeptides. To determine the KM value, vmax, kcat and the specific activity, the polypeptides were selectively enriched chromatographically by standard methods over nickel-Sepharose columns. The determination of the protein concentration was performed by means of standard methods, either being calculated by the BCA method (Pierce BCA Protein Assay KitProd #23225) or preferably photometrically with the specific extinction coefficients for the respective proteins that are available online with the ProtParam program at http://web.expasy.org/protparam (Gasteiger E. et al.; Protein Identification and Analysis Tools on the ExPASy Server, in John M. Walker (ed): The Proteomics Protocols Handbook, Humana Press, 2005, pp. 571-607).
The preparation, enrichment and purification of the polypeptides and/or variants thereof were performed as described in example 1. Degradation of ZEN to HZEN was measured on the basis of the reduction in absorption at the wavelength of 315 nm. […] The extinction coefficients have a strong dependence on pH and therefore the activity must always be measured precisely at the same pH and preferably also in the same matrix. The measurements were performed in a 50 mM Tris-HCl pH=8.2 buffer solution in quartz cuvettes in a wavelength range of 200 to 2500 nm in a UV-VIS photometer (Hitachi U-2001) at 32° C.
A 2.08 mM ZEN solution (40 vol % ACN+60 vol % H2O) was used as the ZEN substrate stock solution. To prepare this solution, ZEN in crystalline form (Biopure Standard from Romer Labs, article no. 001109, purity at least 98%) was weighed and dissolved accordingly. The ZEN substrate dilutions (0.79 μM, 1.57 μM, 2.36 μM, 3.14 μM, 4.71 μM, 6.28 μM, 7.85 μM, 9.42 μM, 10.99 μM, 12.56 μM, 14.13 μM, 15.71 μM, 17.28 μM and 18.85 μM) were prepared with 50 mM Tris-HCl pH=8.2. The polypeptide solutions were diluted to a final concentration of approximately 70 ng/mL using 50 mM Tris-HCl buffer pH=8.2. The ZEN substrate dilutions were preheated to 32° C. in a water bath.
100 μL portions of the respective ZEN substrate dilution were mixed with 0.2 μL polypeptide solution, and the absorption was measured for 5 minutes, whereupon each combination of polypeptide solution and ZEN substrate dilution was measured at least twice.
Taking into account the extinction coefficients of ZEN and HZEN, the reaction rate was calculated for each substance concentration on the basis of the slope in the absorption over time.
The designations “KM value” or “Michaelis-Menten constant” relate to a parameter for describing the enzymatic affinity of the units μM or mM, which are calculated with the help of the linear Hanes plots according to H. Bisswang (2002, Enzyme Kinetics, ISBN 3-527-30343-X, page 19), wherein the function “enzyme kinetics, single substrate” in the SigmaPlot 12.0 program is preferably used for this purpose. The designations “catalytic constant of the enzyme reaction” or “kcat value” relate to a parameter for describing the conversion rate of a polypeptide and/or enzyme, which is given in s^−1 and is preferably calculated with the help of the “enzyme kinetic, single substrate” function of the SigmaPlot 12.0 program. The “maximum enzyme rate” or “vmax value” is given in units of μM/s or mM/s and is determined with the help of the linear Hanes plot by analogy with the KM value, wherein the function “enzyme kinetic, single substrate” of the SigmaPlot 12.0 program is preferably used for this.
The raw data for determination of the enzyme parameters KM, vmax, kcat and the specific activity are given below for the polypeptide having the sequence ID no. 1.

[2] = relatively low acute toxicity; cited from earlier work
[3] = cited from earlier work
cattle = settings: cited from earlier work
[4] = system: mammalian animals, in particular pigs; settings: cited from earlier work
estrogen receptor = settings: cited from earlier work

SMILES: C[C@H]1CCCC(=O)CCCCCc2cc(O)cc(O)c2C(=O)O1 [ZAN, (11S)-15,17-dihydroxy-11-methyl-12-oxabicyclo-[12.4.0]octadeca-1(18),14,16-triene-7,13-dione]
- estrogenic effect compared with ZEN (estrogenic effect): much stronger estrogenic effect than ZEN

SMILES: C[C@H]1CCCC(=O)CCC/C=C/c2cc(O)cc(O)c2C(=O)O1 [ZEN, (2E,11S)-15,17-dihydroxy-11-methyl-12-oxabicyclo[12.4.0]octadeca-1(18),2,14,16-tetraene-7,13-dione]
- ZEN concentration that can result in hyperestrogenicity (pigs): more than 1.5 ppm
- Km ([1]; Average): 0.204 µM
- Vmax ([1]; Average): 0.009343 µM/s
- kcat ([1]; Average): 5.12 s⁻¹
- Km ([1]; Measurement 1): 0.217 µM
- Vmax ([1]; Measurement 1): 0.00993 µM/s
- kcat ([1]; Measurement 1): 5.44 s⁻¹
- Km ([1]; Measurement 2): 0.19 µM
- Vmax ([1]; Measurement 2): 0.008756 µM/s
- kcat ([1]; Measurement 2): 4.79 s⁻¹
- oral LD50 [2]: up to 20,000 mg/kg body weight
- absorption through the mucous membranes ([3]; in particular gastric mucosa and oral mucosa): absorbed rapidly
- time after oral administration at which ZEN can be detected in blood ([3]; oral administration): 30 min
- ZEN concentration blamed for spontaneous abortions (cattle): 12 ppm
- ZEN concentration in feed resulting in developmental disorders [4]: more than 0.5 ppm
- binding to the estrogen receptor (estrogen receptor): binds to the estrogen receptor

SMILES: C[C@H]1CCC[C@H](O)CCCCCc2cc(O)cc(O)c2C(=O)O1 [α-ZAL, (7R,11S)-7,15,17-trihydroxy-11-methyl-12-oxabicyclo[12.4.0]octa-deca-1(18),14,16-trien-13-one]
- estrogenic effect compared with ZEN (estrogenic effect): much stronger estrogenic effect than ZEN

SMILES: C[C@H]1CCC[C@H](O)CCC/C=C/c2cc(O)cc(O)c2C(=O)O1 [α-ZEL, (2E,7R,11S)-7,15,17-trihydroxy-11-methyl-12-oxabicyclo[12.4.0]-octadeca-1(18),2,14,16-tetraen-13-one]
- estrogenic effect compared with ZEN (estrogenic effect): much stronger estrogenic effect than ZEN
